From patent US20260272907A1, “Therapeutic Tyrosine Kinase Inhibitors for Multiple Sclerosis” (Principia Biopharma Inc., priority 2022, published 2026)

Key:
[1] = system: patients with relapsing multiple sclerosis; test: Phase 2b trial: incidence of MS relapse during placebo run-out after tolebrutinib; format: in vivo, human
From the text: Unscheduled assessment visits for a suspected multiple sclerosis relapse: Participants are instructed to immediately report new neurological symptoms and recurring or worsening of previous symptoms to the Investigator. Any reported symptoms are to be collected. If a participant reports symptoms that may be consistent with relapse, an unscheduled assessment visit with the Investigator is scheduled as soon as possible (whenever possible within 7 days of onset of the symptoms). The Investigator assesses whether the reported episode is consistent with the definition of MS relapse (see Example 1.6B). If it is consistent with the definition of MS relapse or if there is any doubt and relapse cannot be ruled out, an EDSS assessment should be performed. Unscheduled visit activities are detailed in SoA (Table 1), they need to be adapted, if other pathology than MS is cause for it, and additional examinations or laboratory tests are needed for safety follow up and optimal treatment decisions.
Multiple sclerosis relapse: For the purposes of this study, MS relapse is defined as acute, new neurological symptoms or worsening of previous neurological symptoms with an objective change on neurological examination. Symptoms must: • Be attributable to MS • Last for >24 hours, and • Be present at normal body temperature (i.e., no infection, excessive exercise, or excessively high ambient temperature)
METHODS: As described in Examples 1 and 2, the 16-week, double-blind, crossover trial randomized 130 patients with RMS (1:1:1:1) to tolebrutinib 5, 15, 30, or 60 mg/day. […]
OUTCOMES: The outcomes evaluated in this example include measuring the incidence of relapse during 4-week placebo run-in and run-out, the number of new Gd-enhancing T1 lesions detected with magnetic resonance imaging (MRI) at Weeks 4, 8 and 16, the number of new or enlarging T2 lesions measured at Weeks 4, 8 and 16, and the plasma CD19+B-cell count measured in the placebo run-out cohort at baseline, 1 hour after the first dose, then at Week 12 and Week 16 (FIG. 3).

[2] = system: patients with relapsing multiple sclerosis; test: Long-term safety extension: paramagnetic rim lesions (PRL) count (MRI); format: in vivo, human
Procedure: (§1) In the current open-label extension Part B, all patients receive 60 mg/day. MRI outcomes include numbers of new Gd-enhancing and new/enlarging T2 lesions, T2 lesion volume change from baseline, slowly evolving lesions (SEL), and paramagnetic rim lesions (PRL).

CYP2C8 = target: T1, CYP2C8 (Homo sapiens, UniProt P10632); test: Preclinical drug metabolism studies: CYP2C8; format: in vitro ADME
T1 sequence (P10632 1-490): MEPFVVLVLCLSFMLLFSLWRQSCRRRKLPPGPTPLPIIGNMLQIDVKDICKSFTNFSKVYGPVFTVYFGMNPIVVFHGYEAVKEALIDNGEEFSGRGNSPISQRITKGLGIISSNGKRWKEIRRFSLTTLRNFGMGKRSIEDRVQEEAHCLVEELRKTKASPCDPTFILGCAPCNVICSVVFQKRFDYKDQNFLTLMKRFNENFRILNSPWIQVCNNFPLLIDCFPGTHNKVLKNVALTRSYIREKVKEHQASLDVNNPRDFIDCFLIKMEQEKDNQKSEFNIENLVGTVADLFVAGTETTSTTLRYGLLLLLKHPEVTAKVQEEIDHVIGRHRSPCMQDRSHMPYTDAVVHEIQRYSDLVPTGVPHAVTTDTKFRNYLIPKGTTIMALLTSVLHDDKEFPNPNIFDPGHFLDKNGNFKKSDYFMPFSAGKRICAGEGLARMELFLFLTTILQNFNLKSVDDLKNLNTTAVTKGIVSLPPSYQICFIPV
From the text: See Table 12 for the list of drugs not to be used.

[3] = system: patients with relapsing multiple sclerosis; test: Long-term safety extension: number of new Gd-enhancing T1-hyperintense lesions (MRI); format: in vivo, human; conditions: for Number of new Gd-enhancing lesions, mean±SD: LTS W96
Procedure: as §1
The Week 0 value is from the last MRI obtained in the dose-finding study if performed within 6 weeks prior to Day 1 of the long-term safety study For some patients the Week 0 value began after a gap period ranging from 0-21 weeks. For patients where the gap period was 0 weeks, the Week 0 value began immediately after the completion of Week 16 of the dose-finding study. For patients where the gap period was greater than 6 weeks a new MRI was obtained prior to Day 1 of the long-term safety study.
If from Week 16 of the dose-finding study (Cohort 2), it is also included in Week 12. If from Week 16 of the dose-finding study (Cohort 1), it is after 4 weeks placebo run out.

[4] = system: patients with relapsing multiple sclerosis; test: Long-term safety extension: slowly evolving lesions (SEL) volume (MRI); format: in vivo, human; conditions: W96
Procedure: as §1

[5] = system: patients with relapsing multiple sclerosis; test: Phase 2b dose-finding study: number of new Gd-enhancing T1-hyperintense lesions by brain MRI; conditions: for New Gd-enhancing T1-hyperintense lesion count, observed mean (SD): 12 weeks of treatment, Cohorts 1 and 2 pooled; for Patients with no new Gd-enhancing T1 lesions / Gd-enhancing T1 lesion count, mean (SD): Cohort 1 (all doses); for Gd+ lesion count, mean (SD): Cohort 1, 60 mg/day
Procedure: Cranial (brain) MRI with and without Gd contrast is performed. Basic MRIs are performed for all participants at all study sites and consist of T2- and T1-weighted sequences without and with Gd contrast.
New T1 Gd-enhancing hyperintense and new and enlarging T2 lesions are evaluated at each visit as per the SoA (Table 1), comparing lesion count to that from the previous MRI scan. Unless specified otherwise, the baseline brain MRI is used as the reference to assess all MRI-derived endpoints. The baseline MRI is the last MRI performed before the randomization visit. Standardized endpoint evaluation is assured by central review of brain MRI scans. Blinded central review is performed for all MRI-derived endpoints. Magnetic resonance imaging reviewers are blinded to treatment assignments and to other participant data.
The first step of this procedure tests for an efficacy signal (compared to the null hypothesis of a flat, no dose-response curve) in a procedure that controls the type 1 error. […] The second step is the Dose estimation of the dose-response curve, provided that an efficacy signal is established in the first step.
The 4-week post-randomization placebo data from Cohort 2 (i.e., Week 4 data from Cohort 2) is utilized as the placebo data at Week 12 in analysis, under the assumption of a constant rate of Gd-enhancing T1-hyperintense lesion formation if participants would be receiving placebo over 12 weeks. Participants in Cohort 2 contribute to the placebo data (at Week 4) as well as the data for 4 BTK inhibitor doses (at Week 16). […] If step 1 yields significant results, the best fitting model from the 6 predefined candidate models is chosen using the generalized Akaike information criterion (AIC).
The first step of this procedure tested for an efficacy signal (compared to the null hypothesis of a flat, no dose-response curve) in a procedure that controls the type 1 error.
The MRI assessments were excluded from the analyses if the participant was receiving systemic corticosteroids within the 30 days prior to the MRI assessment date. The 4-week post-randomization placebo data from Cohort 2 (i.e., Week 4 data from Cohort 2) was utilized as the placebo data at Week 12 in analysis under the assumption of a constant rate of Gd-enhancing T1-hyperintense lesion formation if participants were to receive placebo over 12 weeks. Participants in Cohort 2 contributed to the placebo data (at Week 4) as well as the data for 4 BTK inhibitor doses (at Week 16). The 4-week placebo run-out data from Cohort 1 was not included in the analysis. […] Test statistics and adjusted p-values were provided for all 6 candidate models.

[6] = Cohort 1 (all doses), 4-week placebo run-out after 12 weeks of tolebrutinib
[7] = 5 mg daily, after 12 weeks of treatment
[8] = 15 mg daily, after 12 weeks of treatment
[9] = 30 mg daily, after 12 weeks of treatment
[10] = 60 mg daily, after 12 weeks of treatment
[11] = after 4 weeks of placebo run-out

## C=CC(=O)N1CCC[C@@H](n2c(=O)n(-c3ccc(Oc4ccccc4)cc3)c3c(N)nccc32)C1 [the BTK inhibitor, (R)-1-(1-acryloylpiperidin-3-yl)-4-amino-3-(4-phenoxyphenyl)-1H-imidazo[4,5-c]pyridin-2(3H)-one]
[1]; [6]
  Patients relapse-free during the placebo run-out: 98.4%
  Relapses during the placebo run-out: 1
[1]; patients with RMS, 4-week placebo run-out, preliminary findings
  Rebound disease activity after discontinuation: does not induce rebound disease activity
[2]; W96 vs baseline, all arms
  Patients in whom PRL count remained unchanged: 18 patients
[2]; all arms
  Patients with 1 PRL at baseline but none at W96: 2 patients
[2]; none in the 60/60 mg arm
  Patients with 1-3 additional PRL at W96 vs baseline: 3 patients
CYP2C8
  Substrate of CYP2C8 isoenzyme: substrate
[3]; 5/60 mg, Week 0
  Number of new GD-enhancing T1-Hyperintense lesions, Mean (SD): 1.13 (2.66)
  Number of new GD-enhancing T1-Hyperintense lesions, Median: 0.00
[3]; 5/60 mg, Week 12
  Number of new GD-enhancing T1-Hyperintense lesions, Mean (SD): 1.03 (2.57)
  Number of new GD-enhancing T1-Hyperintense lesions, Median: 0.00
[3]; 5/60-mg arm
  Number of new Gd-enhancing lesions, mean±SD: 0.85±2.5
[3]; 15/60 mg, Week 0
  Number of new GD-enhancing T1-Hyperintense lesions, Mean (SD): 1.00 (1.88)
  Number of new GD-enhancing T1-Hyperintense lesions, Median: 0.00
[3]; 15/60 mg, Week 12
  Number of new GD-enhancing T1-Hyperintense lesions, Mean (SD): 0.80 (1.49)
  Number of new GD-enhancing T1-Hyperintense lesions, Median: 0.00
[3]; 15/60-mg arm
  Number of new Gd-enhancing lesions, mean±SD: 0.41±0.91
[3]; 30/60 mg, Week 0
  Number of new GD-enhancing T1-Hyperintense lesions, Mean (SD): 1.68 (4.29)
  Number of new GD-enhancing T1-Hyperintense lesions, Median: 0.00
[3]; 30/60 mg, Week 12
  Number of new GD-enhancing T1-Hyperintense lesions, Mean (SD): 0.78 (3.36)
  Number of new GD-enhancing T1-Hyperintense lesions, Median: 0.00
[3]; 30/60-mg arm
  Number of new Gd-enhancing lesions, mean±SD: 0.90±2.16
[3]; 60/60 mg, Week 0
  Number of new GD-enhancing T1-Hyperintense lesions, Mean (SD): 0.35 (0.61)
  Number of new GD-enhancing T1-Hyperintense lesions, Median: 0.00
[3]; 60/60 mg, Week 12
  Number of new GD-enhancing T1-Hyperintense lesions, Mean (SD): 0.13 (0.43)
  Number of new GD-enhancing T1-Hyperintense lesions, Median: 0.00
[3]; 60/60-mg arm
  Number of new Gd-enhancing lesions, mean±SD: 0.31±0.66
[3]; All (N = 125), Week 0
  Number of new GD-enhancing T1-Hyperintense lesions, Mean (SD): 1.04 (2.72)
  Number of new GD-enhancing T1-Hyperintense lesions, Median: 0.00
[3]; All (N = 125), Week 12
  Number of new GD-enhancing T1-Hyperintense lesions, Mean (SD): 0.69 (2.27)
  Number of new GD-enhancing T1-Hyperintense lesions, Median: 0.00
[4]; 5/60-mg arm
  SEL volume, median (IQR): 247.5 (84-420) mm3
[4]; 15/60-mg arm
  SEL volume, median (IQR): 258 (66-906) mm3
[4]; 30/60-mg arm
  SEL volume, median (IQR): 570 (133.5-1011) mm3
[4]; 60/60-mg arm
  SEL volume, median (IQR): 244.5 (87-939) mm3
[5]; [7]
  New Gd-enhancing T1-hyperintense lesion count, Mean: 1.39
  New Gd-enhancing T1-hyperintense lesion count, Median: 0.00
[5]; 5 mg once daily
  New Gd-enhancing T1-hyperintense lesion count, observed mean (SD): 1.39 (3.20)
[5]; [8]
  New Gd-enhancing T1-hyperintense lesion count, Mean: 0.77
  New Gd-enhancing T1-hyperintense lesion count, Median: 0.00
[5]; 15 mg once daily
  New Gd-enhancing T1-hyperintense lesion count, observed mean (SD): 0.77 (1.48)
[5]; [9]
  New Gd-enhancing T1-hyperintense lesion count, Mean: 0.76
  New Gd-enhancing T1-hyperintense lesion count, Median: 0.00
[5]; 30 mg once daily
  New Gd-enhancing T1-hyperintense lesion count, observed mean (SD): 0.76 (3.31)
[5]; [10]
  New Gd-enhancing T1-hyperintense lesion count, Mean: 0.13
  New Gd-enhancing T1-hyperintense lesion count, Median: 0.00
  Patients with >=3 new Gd-enhancing T1-hyperintense lesions: 0 n
[5]; 60 mg once daily
  New Gd-enhancing T1-hyperintense lesion count, observed mean (SD): 0.13 (0.43)
[5]; 60 mg, 12 weeks, negative binomial regression model adjusted for baseline lesion activity, 95% CI [28.02%, 96.88%], nominal p=0.0178
  Relative reduction in new Gd-enhancing T1-hyperintense lesions compared with placebo: 85.02%
[5]; 60 mg, end of 12 weeks of treatment, 28 of 31 with evaluable MRI
  Participants with no new Gd-enhancing T1-hyperintense lesions: 90.30%
[5]; 5-60 mg once daily, after 12 weeks of treatment, MCP-Mod
  Dose-response for reduction in number of new active Gd-enhancing T1-hyperintense brain lesions: dose-response relationship
[5]; 4 weeks after discontinuing tolebrutinib (placebo run-out)
  Patients with no new Gd-enhancing T1 lesions: 85.2%
[5]; [11]
  Gd-enhancing T1 lesion count, mean (SD): 0.44 (1.70)
  Gd+ lesion count, mean (SD): 0.31 (0.70)
[5]; after 12 weeks of tolebrutinib
  Gd-enhancing T1 lesion count, mean (SD): 0.37 (0.99)
  Gd+ lesion count, mean (SD): 0.20 (0.56)
[5]; after 12 weeks of tolebrutinib treatment
  Patients with no new Gd-enhancing T1 lesions: 83.3%
